{"source": "paper PMC10683472", "about": "“Deep Learning-Driven Library Design for the De Novo Discovery of Bioactive Thiopeptides” (ACS Central Science, 2023)", "molecules": {"B1": {"name": "thiopeptide TL3 (synthetic) (peptide)", "chain": "SW[hGln]ISFWLQRKVAFSCSC", "modifications": "bridge (positions not given here) via pyridine‑bisazole; reading uncertain; also: macrocycle closed through a pyridine-bisazole moiety, oxazole to thiazole change"}, "B2": {"name": "thiopeptide TL19 (synthetic) (peptide)", "chain": "SWIGRV[Nle]IK[Dha]SSCSC", "modifications": "bridge (positions not given here) via pyridine‑bisazole; not fully specified (residue 11); reading uncertain; also: Ser11 is an oxazole, macrocycle closed through a pyridine-bisazole moiety"}, "B3": {"name": "thiopeptide TL4 (synthetic) (peptide)", "chain": "SWTIRFTNQNKIAFSCSC", "modifications": "bridge (positions not given here) via pyridine‑bisazole; reading uncertain; also: macrocycle closed through pyridine-bisazole moiety, oxazole to thiazole change"}, "B4": {"name": "thiopeptide TL17 (synthetic) (peptide)", "chain": "SWALLIKQIN[Nle]LY[hGln]SCSC", "modifications": "bridge (positions not given here) via pyridine‑bisazole; reading uncertain; also: macrocycle closed through a pyridine-bisazole moiety, oxazole to thiazole change"}, "B5": {"name": "thiopeptide TL6 (synthetic) (peptide)", "chain": "SWT[Nle]LFRLQSKLAISCSC", "modifications": "bridge (positions not given here) via pyridine‑bisazole; reading uncertain; also: macrocycle closed through a pyridine-bisazole moiety, oxazole to thiazole change"}}, "key": {"[1]": {"target": "T1, TLR10 (Homo sapiens, UniProt Q9BXR5)", "T1 sequence (Q9BXR5 20-576)": "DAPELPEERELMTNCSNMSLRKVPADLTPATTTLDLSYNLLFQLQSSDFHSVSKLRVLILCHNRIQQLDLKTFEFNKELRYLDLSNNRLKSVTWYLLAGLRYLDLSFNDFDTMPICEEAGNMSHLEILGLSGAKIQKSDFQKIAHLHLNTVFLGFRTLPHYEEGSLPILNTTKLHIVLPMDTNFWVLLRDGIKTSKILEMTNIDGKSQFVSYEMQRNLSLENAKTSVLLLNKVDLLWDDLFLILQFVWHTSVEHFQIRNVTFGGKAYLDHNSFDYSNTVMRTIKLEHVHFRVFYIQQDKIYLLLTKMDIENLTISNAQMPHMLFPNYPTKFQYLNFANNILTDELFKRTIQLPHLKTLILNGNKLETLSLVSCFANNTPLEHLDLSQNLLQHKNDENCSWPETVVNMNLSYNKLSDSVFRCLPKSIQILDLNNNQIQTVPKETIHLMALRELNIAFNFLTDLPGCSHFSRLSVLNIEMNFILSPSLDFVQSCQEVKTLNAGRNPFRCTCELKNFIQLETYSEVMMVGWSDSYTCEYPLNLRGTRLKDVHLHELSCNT", "assay": "Single-round mRNA display binding assay (qPCR), TLR10", "conditions": "ratio of cDNA recoveries (qPCR), TLR10 pulldown over beads only, single-round selection"}, "[2]": {"target": "T1, TLR10", "assay": "mRNA display affinity selection against TLR10, NGS abundance", "format": "binding", "set-up": "Chimera protein (extracellular domain, amino acid 20-576;); Fc (chimera); purchased R&D system #6619-TR-050", "conditions": "TLR10 selection, NGS abundance rank"}, "[3]": {"target": "T2, Human TLR10 Fc Chimera protein (extracellular domain) (Homo sapiens, UniProt Q9BXR5)", "T2 construct": "Chimera protein (extracellular domain, amino acid 20-576;); Fc (chimera); purchased R&D system #6619-TR-050", "T2 sequence (Q9BXR5 20-576)": "T1 sequence (Q9BXR5 20-576)", "assay": "Surface plasmon resonance binding to TLR10", "conditions": "SPR", "protocol": "Reagents were purchased from Nacalai Tesque, Wako Pure Chemical Industries, Sigma-Aldrich Japan, or TCI Chemicals and were used as received. […]\nAnti-HA magnetic beads were from Pierce Thermo […]\n2000c spectrophotometer (Thermo Scientific) equipped with a 5 mm pathlength quartz cuvette using extinction coefficient values calculated with ExPASy ProtParam tool (https://web.expasy.org/protparam). […]\nBiochemical measurements (sections 2.10 – 2.14) were performed in triplicate or more. Most […]\ndetermination of biophysical parameters involved cell assay (CP50 and IC50), reported are standard errors of the fit; otherwise, error bars are standard deviations. […]"}, "[4]": {"assay": "Serum stability assay", "format": "in vitro ADME", "conditions": "human serum, 37 °C, LC/MS; for half-life at 10 µM: pH 7.6, read-out: serum stability τ1/2 (converted)", "protocol": "Next, we tested the metabolic stability of the discovered thiopeptides. The compounds were incubated in human serum at 37 °C in the presence of an internal control, and the amounts of the remaining analytes were quantified by LC/MS (Figures S27 and 28). […] At the other extreme, IR11 rapidly degraded in human serum with τ1/2 = 0.5 h. […]\nKinetic parameters and affinities of the […]\n2.12. Thiopeptide metabolic stability experiments\nThe mixtures were stirred\nwell and transferred to a 37 °C thermostat. […]"}, "[5]": {"target": "T3, toll-like receptor 10, extracellular domain (UniProt Q9BXR5 20-576)", "T3 construct": "toll-like receptor 10 (TLR10), extracellular domain; also called TLR10; TLR10 cell surface receptor", "T3 sequence (looked up)": "T1 sequence (Q9BXR5 20-576)", "assay": "SPR; surface plasmon resonance of synthetic thiopeptides on their target protein; conditions in S.I. 2.10 (not shown)", "conditions": "both partners purified"}}, "note": "*1 amine or outer side, *2 acyl side, *3 side chain or, on linkers, in order; H or OH if unused. Where a SMILES comes first, the peptide text is derived from it. Where no end group is shown, it is not given here. [ ]: non-standard residue; d: D form. hGln = L-homoglutamine, NC(=O)CCC[C@H](N[*:1])C(=O)[*:2]; pyridine‑bisazole = not defined here; Nle = CCCC[C@H](N)C(=O)O; Dha = C=C(N)C(=O)O", "data": [{"molecule": "C=C1NC(=O)[C@H](CCCCN)NC(=O)[C@H]([C@@H](C)CC)NC(=O)[C@H](CCCC)NC(=O)[C@H](C(C)C)NC(=O)[C@H](CCCNC(=N)N)NC(=O)CNC(=O)[C@H]([C@@H](C)CC)NC(=O)[C@H](Cc2c[nH]c3ccccc23)NC(=O)c2ccc(-c3nc(C(=O)OC)cs3)nc2-c2csc(n2)C(=C)NC(=O)c2coc1n2", "note": "[TL19] (HELM PEPTIDE1{W.I.G.R.V.[Nle].I.K.[C=C(N[*:1])c1nc(C(=O)[*:2])co1]}|CHEM1{[C=C(N[*:2])c1nc(-c2nc(-c3nc(C(=O)OC)cs3)ccc2C(=O)[*:1])cs1]}$PEPTIDE1,CHEM1,1:R1-1:R1|PEPTIDE1,CHEM1,9:R2-1:R2$$$V2.0; bridges inferred)", "values": [{"measurement": "display P/N ratio", "setting": "[1]", "result": 263}, {"measurement": "rank in pulldown(–)", "setting": "[2]", "result": 22}, {"measurement": "rank in pulldown(+)", "setting": "[2]; –: not found in the final pulldown(+) libraries at the sequenced depth", "result": 16}, {"measurement": "koff", "setting": "[3]", "result": 0.0032, "unit": "s⁻¹"}, {"measurement": "kon", "setting": "[3]", "result": 5540, "unit": "M⁻¹ s⁻¹"}, {"measurement": "half-life at 10 µM", "setting": "[4]", "result": "7.4 ± 1.5", "unit": "h"}]}, {"molecule": "C=C1NC(=O)[C@H](Cc2c[nH]cn2)NC(=O)[C@H]([C@@H](C)CC)NC(=O)[C@H](C(C)C)NC(=O)[C@H](C(C)C)NC(=O)[C@H](CC(N)=O)NC(=O)[C@H](C(C)C)NC(=O)[C@H](CCCNC(=N)N)NC(=O)[C@H](CO)NC(=O)[C@H](CC(C)C)NC(=O)[C@H](CCC(=O)O)NC(=O)[C@H](CC(C)C)NC(=O)[C@H](CO)NC(=O)[C@H](Cc2c[nH]c3ccccc23)NC(=O)c2ccc(-c3nc(C(=O)OC)cs3)nc2-c2csc1n2", "note": "[TL20] (HELM PEPTIDE1{W.S.L.E.L.S.R.V.N.V.V.I.H}|CHEM1{[C=C(N[*:2])c1nc(-c2nc(-c3nc(C(=O)OC)cs3)ccc2C(=O)[*:1])cs1]}$PEPTIDE1,CHEM1,1:R1-1:R1|PEPTIDE1,CHEM1,13:R2-1:R2$$$V2.0; bridges inferred)", "values": [{"measurement": "display P/N ratio", "setting": "[1]", "result": 286}, {"measurement": "rank in pulldown(–)", "setting": "[2]", "result": 52}, {"measurement": "koff", "setting": "[3]", "result": 0.0078, "unit": "s⁻¹"}, {"measurement": "kon", "setting": "[3]", "result": 25500, "unit": "M⁻¹ s⁻¹"}, {"measurement": "serum stability τ1/2", "setting": "[4]", "result": 38, "unit": "h"}, {"measurement": "half-life at 10 µM", "setting": "[4]", "result": "38.2 ± 6", "unit": "h"}]}, {"molecule": "B1", "values": [{"measurement": "Kd", "setting": "[5]", "result": 890, "unit": "nM"}]}, {"molecule": "B2", "values": [{"measurement": "Kd", "setting": "[5]", "result": 570, "unit": "nM"}]}, {"molecule": "B3", "values": [{"measurement": "Kd", "setting": "[5]", "result": 680, "unit": "nM"}]}, {"molecule": "B4", "values": [{"measurement": "Kd", "setting": "[5]", "result": 360, "unit": "nM"}]}, {"molecule": "B5", "values": [{"measurement": "Kd", "setting": "[5]", "result": 630, "unit": "nM"}]}]}
